# Experimental data as given in patent publication US9302999B2, “Substituted triazoles as herbicides” (E. I. DU PONT DE NEMOURS AND COMPANY, priority 2012, dated 2016).
# How the values were obtained:
# Format in all cases: in vivo
# [1] = system: foxtail, giant (giant foxtail, Setaria faberii); experiment: Test A pre-/postemergence: foxtail, giant; conditions: for Foxtail, Giant plant response rating: Postemergence; for Plant response rating, Foxtail, Giant: Preemergence
# In short: (§1)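 Rating scale 0–100 (100 = complete control), visual, ~10 days after application in the greenhouse. Applications: preemergence directed soil spray; postemergence at 1–2 leaves.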
# [2] = system: ducksalad (Heteranthera limosa); experiment: Test C flooded paddy test: ducksalad; conditions: scale 0 to 100 (0 no effect, 100 complete control)
# In short: (§2)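 Visual ratings from 0 (no effect) to 100 (complete control), made against untreated controls 13 to 15 days after treatment, express plant response. Compounds went directly into paddy water over 2-leaf stage plants in pots flooded to 3 cm.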
# [3] = system: rice (Oryza sativa); experiment: Test C flooded paddy test: rice; conditions: scale 0 to 100 (0 no effect, 100 complete control)
# In short: as §2
# [4] = system: crabgrass, large (large crabgrass, Digitaria sanguinalis); experiment: Test A pre-/postemergence: crabgrass, large; conditions: for Crabgrass, Large plant response rating: Postemergence; for Plant response rating, Crabgrass, Large: Preemergence
# In short: as §1
# [5] = system: velvetleaf (Abutilon theophrasti); experiment: Test A pre-/postemergence: velvetleaf; conditions: for Velvetleaf plant response rating: Postemergence; for Plant response rating, Velvetleaf: Preemergence
# In short: as §1
# [6] = system: sedge, umbrella (small-flower umbrella sedge, Cyperus difformis); experiment: Test C flooded paddy test: sedge, umbrella; conditions: scale 0 to 100 (0 no effect, 100 complete control)
# In short: as §2
# [7] = system: wheat (Triticum aestivum); experiment: Test A pre-/postemergence: wheat; conditions: for Wheat plant response rating: Postemergence; for Plant response rating, Wheat: Preemergence
# In short: as §1
# [8] = system: corn (Zea mays); experiment: Test A pre-/postemergence: corn; conditions: for Corn plant response rating: Postemergence; for Plant response rating, Corn: Preemergence
# In short: as §1
# [9] = system: barnyardgrass (Echinochloa crus-galli); experiment: Test A pre-/postemergence: barnyardgrass; conditions: for Barnyardgrass plant response rating: Postemergence; for Plant response rating, Barnyardgrass: Preemergence
# In short: as §1
# [10] = system: barnyardgrass (Echinochloa crus-galli); experiment: Test C flooded paddy test: barnyardgrass; conditions: scale 0 to 100 (0 no effect, 100 complete control)
# In short: as §2
# [11] = system: morningglory (Ipomoea spp.); experiment: Test A pre-/postemergence: morningglory; conditions: for Morningglory plant response rating: Postemergence; for Plant response rating, Morningglory: Preemergence
# In short: as §1
# [12] = system: pigweed (Amaranthus retroflexus); experiment: Test A pre-/postemergence: pigweed; conditions: for Pigweed plant response rating: Postemergence; for Plant response rating, Pigweed: Preemergence
# In short: as §1
# [13] = 125 g ai/ha, 0 to 100 scale, 0 is no effect, 100 is complete control
# [14] = 500 g ai/ha, visual rating on 0 to 100 scale (0 no effect, 100 complete control), approximately ten days
# [15] = 125 g ai/ha, 0 to 100 scale (0 no effect, 100 complete control)
# [16] = 500 g ai/ha, 0 to 100 scale, 0 is no effect, 100 is complete control
# [17] = Flood (flooded paddy test), 62 g ai/ha, visual rating after 13 to 15 days
# [18] = Flood (flooded paddy test), 250 g ai/ha, visual rating after 13 to 15 days
# [19] = Flood (flooded paddy test), 125 g ai/ha, visual rating after 13 to 15 days
smiles,measurement,setting,value
Cc1nn(-c2ccc(C(F)(F)F)cc2)nc1Cc1cnn(CC(F)(F)F)c1 [Compound 51],"Foxtail, Giant plant response rating",[1]; [13],0
same,"Foxtail, Giant plant response rating",[1]; [14],10
same,"Plant response rating, Foxtail, Giant",[1]; [15],0
same,"Plant response rating, Foxtail, Giant",[1]; [16],10
same,"Plant response rating, Ducksalad",[2]; [17],0
same,"Plant response rating, Ducksalad",[2]; [18],0
same,"Plant response rating, Rice",[3]; [17],0
same,"Plant response rating, Rice",[3]; [18],0
same,"Crabgrass, Large plant response rating",[4]; [13],0
same,"Crabgrass, Large plant response rating",[4]; [14],10
same,"Plant response rating, Crabgrass, Large",[4]; [15],0
same,"Plant response rating, Crabgrass, Large",[4]; [16],0
same,Velvetleaf plant response rating,[5]; [13],0
same,Velvetleaf plant response rating,[5]; [14],10
same,"Plant response rating, Velvetleaf",[5]; [15],0
same,"Plant response rating, Velvetleaf",[5]; [16],0
same,"Plant response rating, Sedge, Umbrella",[6]; [17],0
same,"Plant response rating, Sedge, Umbrella",[6]; [18],0
same,Wheat plant response rating,[7]; [13],0
same,Wheat plant response rating,[7]; [14],0
same,"Plant response rating, Wheat",[7]; [15],0
same,"Plant response rating, Wheat",[7]; [16],0
same,Corn plant response rating,[8]; [13],0
same,Corn plant response rating,[8]; [14],10
same,"Plant response rating, Corn",[8]; [15],0
same,"Plant response rating, Corn",[8]; [16],0
same,Barnyardgrass plant response rating,[9]; [13],0
same,Barnyardgrass plant response rating,[9]; [14],10
same,"Plant response rating, Barnyardgrass",[9]; [15],0
same,"Plant response rating, Barnyardgrass",[9]; [16],0
same,"Plant response rating, Barnyardgrass",[10]; [17],0
same,"Plant response rating, Barnyardgrass",[10]; [18],0
same,Morningglory plant response rating,[11]; [13],0
same,Morningglory plant response rating,[11]; [14],10
same,"Plant response rating, Morningglory",[11]; [15],0
same,"Plant response rating, Morningglory",[11]; [16],0
same,Pigweed plant response rating,[12]; [13],10
same,Pigweed plant response rating,[12]; [14],60
same,"Plant response rating, Pigweed",[12]; [15],0
same,"Plant response rating, Pigweed",[12]; [16],0
Cc1nn(-c2ccc(Cl)cc2)nc1Oc1ccnc(C(F)(F)F)c1 [Compound 52],"Foxtail, Giant plant response rating",[1]; [13],50
same,"Foxtail, Giant plant response rating",[1]; [14],100
same,"Plant response rating, Foxtail, Giant",[1]; [15],100
same,"Plant response rating, Foxtail, Giant",[1]; [16],100
same,"Plant response rating, Ducksalad",[2]; [17],80
same,"Plant response rating, Ducksalad",[2]; [18],95
same,"Plant response rating, Rice",[3]; [17],15
same,"Plant response rating, Rice",[3]; [18],40
same,"Crabgrass, Large plant response rating",[4]; [13],50
same,"Crabgrass, Large plant response rating",[4]; [14],100
same,"Plant response rating, Crabgrass, Large",[4]; [15],100
same,"Plant response rating, Crabgrass, Large",[4]; [16],100
same,Velvetleaf plant response rating,[5]; [13],30
same,Velvetleaf plant response rating,[5]; [14],100
same,"Plant response rating, Velvetleaf",[5]; [15],0
same,"Plant response rating, Velvetleaf",[5]; [16],10
same,"Plant response rating, Sedge, Umbrella",[6]; [17],65
same,"Plant response rating, Sedge, Umbrella",[6]; [18],85
same,Wheat plant response rating,[7]; [13],10
same,Wheat plant response rating,[7]; [14],20
same,"Plant response rating, Wheat",[7]; [15],0
same,"Plant response rating, Wheat",[7]; [16],0
same,Corn plant response rating,[8]; [13],10
same,Corn plant response rating,[8]; [14],20
same,"Plant response rating, Corn",[8]; [15],0
same,"Plant response rating, Corn",[8]; [16],10
same,Barnyardgrass plant response rating,[9]; [13],20
same,Barnyardgrass plant response rating,[9]; [14],70
same,"Plant response rating, Barnyardgrass",[9]; [15],20
same,"Plant response rating, Barnyardgrass",[9]; [16],90
same,"Plant response rating, Barnyardgrass",[10]; [17],40
same,"Plant response rating, Barnyardgrass",[10]; [18],75
same,Morningglory plant response rating,[11]; [13],40
same,Morningglory plant response rating,[11]; [14],100
same,"Plant response rating, Morningglory",[11]; [15],10
same,"Plant response rating, Morningglory",[11]; [16],20
same,Pigweed plant response rating,[12]; [13],100
same,Pigweed plant response rating,[12]; [14],100
same,"Plant response rating, Pigweed",[12]; [15],100
Cc1nn(-c2cccc(C(F)(F)F)n2)nc1C(=O)c1cccc(C(F)(F)F)c1 [Compound 57],"Foxtail, Giant plant response rating",[1]; [13],0
same,"Foxtail, Giant plant response rating",[1]; [14],0
same,"Plant response rating, Foxtail, Giant",[1]; [15],0
same,"Plant response rating, Foxtail, Giant",[1]; [16],0
same,"Plant response rating, Ducksalad",[2]; [17],0
same,"Plant response rating, Ducksalad",[2]; [19],0
same,"Plant response rating, Ducksalad",[2]; [18],0
same,"Plant response rating, Ducksalad","[2]; Flood, 31 g ai/ha",0
same,"Plant response rating, Rice",[3]; [17],0
same,"Plant response rating, Rice",[3]; [19],0
same,"Plant response rating, Rice",[3]; [18],0
same,"Plant response rating, Rice","[3]; Flood, 31 g ai/ha",0
same,"Crabgrass, Large plant response rating",[4]; [13],0
same,"Crabgrass, Large plant response rating",[4]; [14],10
same,"Plant response rating, Crabgrass, Large",[4]; [15],0
same,"Plant response rating, Crabgrass, Large",[4]; [16],0
same,Velvetleaf plant response rating,[5]; [13],0
same,Velvetleaf plant response rating,[5]; [14],0
same,"Plant response rating, Velvetleaf",[5]; [15],0
same,"Plant response rating, Velvetleaf",[5]; [16],0
same,"Plant response rating, Sedge, Umbrella",[6]; [17],0
same,"Plant response rating, Sedge, Umbrella",[6]; [19],0
same,"Plant response rating, Sedge, Umbrella",[6]; [18],0
same,"Plant response rating, Sedge, Umbrella","[6]; Flood, 31 g ai/ha",0
same,Wheat plant response rating,[7]; [13],0
same,Wheat plant response rating,[7]; [14],0
same,"Plant response rating, Wheat",[7]; [15],0
same,"Plant response rating, Wheat",[7]; [16],0
same,Corn plant response rating,[8]; [13],0
same,Corn plant response rating,[8]; [14],0
same,"Plant response rating, Corn",[8]; [15],0
same,"Plant response rating, Corn",[8]; [16],0
same,Barnyardgrass plant response rating,[9]; [13],0
same,Barnyardgrass plant response rating,[9]; [14],0
same,"Plant response rating, Barnyardgrass",[9]; [15],0
same,"Plant response rating, Barnyardgrass",[9]; [16],0
same,"Plant response rating, Barnyardgrass",[10]; [17],0
same,"Plant response rating, Barnyardgrass",[10]; [19],0
same,"Plant response rating, Barnyardgrass",[10]; [18],0
same,"Plant response rating, Barnyardgrass","[10]; Flood, 31 g ai/ha",0
same,Morningglory plant response rating,[11]; [13],0
same,Morningglory plant response rating,[11]; [14],0
same,"Plant response rating, Morningglory",[11]; [15],0
same,"Plant response rating, Morningglory",[11]; [16],0
same,Pigweed plant response rating,[12]; [13],0
same,Pigweed plant response rating,[12]; [14],10
same,"Plant response rating, Pigweed",[12]; [15],0
same,"Plant response rating, Pigweed",[12]; [16],0
Cc1nn(-c2ccc(I)cc2)nc1C(=O)c1cccc(C(F)(F)F)c1 [Compound 61],"Foxtail, Giant plant response rating",[1]; [13],0
same,"Foxtail, Giant plant response rating",[1]; [14],10
same,"Plant response rating, Foxtail, Giant",[1]; [15],0
same,"Plant response rating, Foxtail, Giant",[1]; [16],10
same,"Plant response rating, Ducksalad",[2]; [17],0
same,"Plant response rating, Ducksalad",[2]; [19],0
same,"Plant response rating, Ducksalad",[2]; [18],0
same,"Plant response rating, Ducksalad","[2]; Flood, 31 g ai/ha",0
same,"Plant response rating, Rice",[3]; [17],0
same,"Plant response rating, Rice",[3]; [19],0
same,"Plant response rating, Rice",[3]; [18],0
same,"Plant response rating, Rice","[3]; Flood, 31 g ai/ha",0
same,"Crabgrass, Large plant response rating",[4]; [13],0
same,"Crabgrass, Large plant response rating",[4]; [14],10
same,"Plant response rating, Crabgrass, Large",[4]; [15],0
same,"Plant response rating, Crabgrass, Large",[4]; [16],10
same,Velvetleaf plant response rating,[5]; [13],10
same,Velvetleaf plant response rating,[5]; [14],30
same,"Plant response rating, Velvetleaf",[5]; [15],0
same,"Plant response rating, Velvetleaf",[5]; [16],0
same,"Plant response rating, Sedge, Umbrella",[6]; [17],0
same,"Plant response rating, Sedge, Umbrella",[6]; [19],0
same,"Plant response rating, Sedge, Umbrella",[6]; [18],0
same,"Plant response rating, Sedge, Umbrella","[6]; Flood, 31 g ai/ha",0
same,Wheat plant response rating,[7]; [13],0
same,Wheat plant response rating,[7]; [14],0
same,"Plant response rating, Wheat",[7]; [15],0
same,"Plant response rating, Wheat",[7]; [16],0
same,Corn plant response rating,[8]; [13],10
same,Corn plant response rating,[8]; [14],10
same,"Plant response rating, Corn",[8]; [15],0
same,"Plant response rating, Corn",[8]; [16],0
same,Barnyardgrass plant response rating,[9]; [13],0
same,Barnyardgrass plant response rating,[9]; [14],10
same,"Plant response rating, Barnyardgrass",[9]; [15],0
same,"Plant response rating, Barnyardgrass",[9]; [16],0
same,"Plant response rating, Barnyardgrass",[10]; [17],0
same,"Plant response rating, Barnyardgrass",[10]; [19],0
same,"Plant response rating, Barnyardgrass",[10]; [18],0
same,"Plant response rating, Barnyardgrass","[10]; Flood, 31 g ai/ha",0
same,Morningglory plant response rating,[11]; [13],10
same,Morningglory plant response rating,[11]; [14],30
same,"Plant response rating, Morningglory",[11]; [15],0
same,"Plant response rating, Morningglory",[11]; [16],0
same,Pigweed plant response rating,[12]; [13],40
same,Pigweed plant response rating,[12]; [14],80
same,"Plant response rating, Pigweed",[12]; [15],0
same,"Plant response rating, Pigweed",[12]; [16],10
